The text below walks through data of patent publication US20230364204A1, “Bioactive Peptides, Compositions, Production Process, and Use of Bioactive Peptides as Anti-Tumoral Agents” (priority 2022, published 2023).

The test system of one experiment is MDAMB231 cells. Kind of experiment: Lactate dehydrogenase (LDH) release. The experiment is classed as cell-based. The settings on record: MDAMB231, 24, 48 and 72 h. The procedure:
The lactate dehydrogenase (LDH) is a cytosolic enzyme present in most mammalian cells.
For LDH release protocol, after treatments were performed for the MTT protocol, 20 µL of the supernatant of each well was transferred to an EIA/RIA plate. Then, 20 µL/well of the Reaction Mixture from the CyQUANT™ LDH Cytotoxicity Assay kit and reaction was incubated at RT for 30 minutes in the dark. Then, 60 µL/well of the Stop Solution from the kit was added and plate was read in a spectrophotometer at both 490 nm and 650 nm.
The calculation of LDH release was performed as follows: • 1. The absorbance measured at 650 nm was subtracted from the absorbance measured at 490 nm. • 2. This formula was applied: […]
O.D.: optical density captured by spectrophotometer NOTE: The Basal O.D. is the one found in the blank wells (only reaction mixture and stop solution).
In order to determine the effects of the peptide in LDH release, autophagy induction and apoptosis/necrosis profile of MDAMB231 cell line, the Analysis of Variance (ANOVA) with Dunnet and Bonferroni post-hoc tests were applied to the significance of 5% in GraphPad Prism software version 6.0.

In experiment [1] the test system is Rho-GTPases (Rho-A, Rho-C), protein elongation mechanism. Briefly: Proteomics analysis. The note with it: data not shown. The experiment is classed as cell-based.

On to `CSCC[C@H](N)C(=O)N[C@@H](Cc1ccccc1)C(=O)N[C@@H](Cc1ccc(O)cc1)C(=O)N1CCC[C@H]1C(=O)N[C@@H](CC(=O)O)C(=O)N[C@@H](CO)C(=O)N[C@@H](CCCNC(=N)N)C(=O)N[C@@H](CS)C(=O)N[C@@H](CCCNC(=N)N)C(=O)NCC(=O)N1CCC[C@H]1C(=O)N[C@@H](CO)C(=O)N[C@@H](CCC(=O)O)C(=O)N[C@H](C(=O)O)[C@@H](C)O` [3-NAntC, [H]-MFYPDSRCRGPSET-[OH]], for which the LDH release entry with MDAMB231 cells is listed as “does not show any significant increase”. Also, in experiment [1], the “Rho-GTPases expression (e.g. Rho-A and Rho-C)” value is “diminished”; the protein elongation mechanism result is reported as “continuously disabling”.
